Measured values: article PMC6010129, “Evaluation of sulphonamide derivatives acting as inhibitors of human carbonic anhydrase isoforms I, II and Mycobacterium tuberculosisβ-class enzyme Rv3273” (Journal of Enzyme Inhibition and Medicinal Chemistry, 2018)

How the values were obtained:
hCA II = biological target: T1, hCA II (Homo sapiens, UniProt P00918); test: stopped-flow CO2 hydrase assay; format: biochemical
T1 construct: gene CA2; cytosolic isoform
Description: stopped-flow CO2 hydrase assay on hCA II

hCA I = biological target: T2, hCA I (Homo sapiens, UniProt P00915); test: stopped-flow CO2 hydrase assay; format: biochemical
T2 construct: gene CA1; cytosolic isoform
T2 sequence (P00915 2-261): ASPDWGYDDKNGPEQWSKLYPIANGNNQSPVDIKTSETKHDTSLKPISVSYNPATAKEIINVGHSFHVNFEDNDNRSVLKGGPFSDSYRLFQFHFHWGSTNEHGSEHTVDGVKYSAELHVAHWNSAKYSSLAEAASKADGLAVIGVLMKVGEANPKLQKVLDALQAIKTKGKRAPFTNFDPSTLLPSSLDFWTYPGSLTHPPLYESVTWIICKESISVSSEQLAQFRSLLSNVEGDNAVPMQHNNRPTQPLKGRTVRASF
Description: stopped-flow CO2 hydrase assay on hCA I

mtCA 3 = biological target: T3, mtCA 3 (Mycobacterium tuberculosis, UniProt P96878); test: biochemical; design: stopped-flow CO2 hydration assay, phenol red absorbance at 557 nm, 15 min pre-incubation, Ki by Cheng-Prusoff
T3 construct: beta-class carbonic anhydrase
T3 sequence (P96878 entry or part of it): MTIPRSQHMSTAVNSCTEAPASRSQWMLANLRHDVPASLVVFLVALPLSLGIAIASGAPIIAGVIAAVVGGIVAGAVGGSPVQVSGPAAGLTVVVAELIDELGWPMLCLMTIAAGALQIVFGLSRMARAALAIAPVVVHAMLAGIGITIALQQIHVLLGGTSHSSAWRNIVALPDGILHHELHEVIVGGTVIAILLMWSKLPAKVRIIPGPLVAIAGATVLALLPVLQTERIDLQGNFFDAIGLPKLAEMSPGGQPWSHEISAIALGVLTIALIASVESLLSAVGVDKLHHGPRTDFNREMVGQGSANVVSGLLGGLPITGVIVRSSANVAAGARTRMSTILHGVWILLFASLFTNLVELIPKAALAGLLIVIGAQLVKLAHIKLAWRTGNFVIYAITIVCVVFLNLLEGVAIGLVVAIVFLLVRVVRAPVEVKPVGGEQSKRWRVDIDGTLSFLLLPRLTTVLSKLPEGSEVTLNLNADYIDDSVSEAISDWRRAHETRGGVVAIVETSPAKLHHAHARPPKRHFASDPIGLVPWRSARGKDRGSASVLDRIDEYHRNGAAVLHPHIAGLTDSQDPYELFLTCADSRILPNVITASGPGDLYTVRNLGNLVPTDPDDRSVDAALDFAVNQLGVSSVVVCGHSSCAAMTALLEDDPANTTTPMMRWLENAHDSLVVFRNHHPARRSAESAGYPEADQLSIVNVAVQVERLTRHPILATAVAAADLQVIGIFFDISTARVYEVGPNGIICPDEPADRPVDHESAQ
Description: An Sx.18Mv-R Applied Photophysics (Oxford, UK) stopped-flow instrument has been used to assay the catalytic activity of various CA isozymes for CO2 hydration reaction. Phenol red (at a concentration of 0.2 mM) was used as indicator, working at the absorbance maximum of 557 nm, with 10 mM Hepes (pH 7.5) or 10 mM Tris (pH 8.5) as buffers, and 0.1 M Na2SO4 (for maintaining constant ionic strength, which is not inhibitory against these enzymes), following the CA-catalysed CO2 hydration reaction for a period of 10 s at 25 °C. The CO2 concentrations ranged from 1.7 to 17 mM for the determination of the kinetic parameters and […]. For each inhibitor at least six traces of the initial 5–10% of the reaction have been used for determining the initial rate. The uncatalysed rates were determined in the same manner and subtracted from the total observed rates. Stock solutions of inhibitors (10 mM) were prepared in distilled-deionised […] to 1 nM using the assay buffer. Inhibitor and enzyme solutions were pre-incubated together for 15 min (standard assay at room temperature) prior to assay, in order to allow for the formation of the enzyme–inhibitor complex. The inhibition constant (KI), was obtained by considering the classical Michaelis–Menten equation and the Cheng-Prusoff algorithm by using non-linear least squares fitting as reported earlier. The compounds 5 and 6 reported here were investigated as inhibitors of three CAs involved in crucial physiologic processes and known to act as drug targets, i.e. the human (h) isoforms hCA I and II (belonging to the α-CA class) and the bacterial enzyme mtCA3 from Mycobacterium tuberculosis (a β-class CA) (Table 3). Acetazolamide (AAZ), a clinically used sulphonamide has been employed as standard inhibitor in the assay.

SMILES | Ki (hCA II) [nM] | Ki (hCA I) [nM] | Ki (mtCA 3) [nM]
NS(=O)(=O)c1ccc(NCC(=O)N2N=C(c3ccc(Cl)cc3)CC2c2ccccc2Cl)cc1 (stereo not drawn) [5f, 4-((2-(3-(4-Chlorophenyl)-5-(2-chlorophenyl)-4,5-dihydro-1H-pyrazol-1-yl)-2-oxoethyl)amino)benzenesulphonamide] | 433 | 445 | 215
NS(=O)(=O)c1ccc(NCC(=O)N2N=C(c3ccc(Cl)cc3)CC2c2ccccc2)cc1 (stereo not drawn) [5a, 4-((2-(3-(4-Chlorophenyl)-5-phenyl-4,5-dihydro-1H-pyrazol-1-yl)-2-oxoethyl)amino) benzenesulphonamide] | 282 | 306 | 1800
